Data reported in US7737139B2, “Sulfonic acids, their derivatives and pharmaceutical compositions containing them” (Dompe PHA.R.MA S.p.A., priority 2003, dated 2010).
Structures can show the parent of a compound that is named as a salt.

Legend:
human PMNs [1] = assay: IL-8 induced human PMN chemotaxis assay; assay type: cell-based; details: c = 10^−8 M; human PMNs chemotaxis induced by IL-8 (100 ng/mL)
Experimental: The compounds of formula (I) were evaluated in vitro for their ability to inhibit chemotaxis of polymorphonucleate leukocytes (hereinafter referred to as PMNs) and monocytes induced by the fractions of IL-8 and GRO-α. For this purpose, in order to isolate the PMNs from heparinized human blood, taken from healthy adult volunteers, mononucleates were removed by means of sedimentation on dextran (according to the procedure disclosed by W. J. Ming et al, J. Immunol., 138, 1469, 1987) and red blood cells by a hypotonic solution. The cell vitality was calculated by exclusion with Trypan blue, whilst the ratio of the circulating polymorphonucleates was estimated on the cytocentrifugate after staining with Diff Quick.
Human recombinant IL-8 (Pepro Tech) was used as stimulating agents in the chemotaxis experiments, giving practically identical results: the lyophilized protein was dissolved in a volume of HBSS containing 0.2% bovin serum albumin (BSA) so thus to obtain a stock solution having a concentration of 10^−5 M to be diluted in HBSS to a concentration of 10^−9 M, for the chemotaxis assays.
During the chemotaxis assay (according to W. Falket et al., J. Immunol. Methods, 33, 239, 1980) PVP-free filters with a porosity of 5 μm and microchambers suitable for replication were used.
The compounds of formula (I) were evaluated at a concentration ranging between 10^−6 and 10^−10 M; for this purpose they were added, at the same concentration, both to the […] of the microchamber. Evaluation of the ability of the compounds of the invention of formula I to inhibit IL-8-induced chemotaxis of human monocytes was carried out according to the method disclosed by Van Damme J. et al. (Eur. J. Immunol., 19, 2367, 1989).
Biological results of some representative compounds in the IL-8 induced PMN chemotaxis test are reported in table II (inhibition data, C=10^−8 M).

human PMNs [2] = assay: IL-8 induced human PMN chemotaxis assay; assay type: cell-based; details: compounds marked * tested at c = 10^−7; human PMNs chemotaxis induced by IL-8 (100 ng/mL)

| SMILES | inhibition at 0.01 µM (human PMNs [1]) | inhibition at 0.1 µM (human PMNs [2]) |
| --- | --- | --- |
| NS(=O)(=O)/C=C/c1cccc(C(=O)c2ccccc2)c1 [Compound 15, E-2-(3-benzoylphenyl) ethenesulfonamide] | 66 ± 10% | – |
| CC(C)Cc1ccc(/C=C/S(=O)(=O)O)cc1 [Compound 10, E-2-(4-isobutylphenyl)ethenesulfonic acid sodium salt] | 45 ± 4% | – |
| CC(=O)c1ccc(CS(N)(=O)=O)n1C [Compound 31, (1-methyl-5-acetylpyrrolyl)-1-methanesulfonamide] | 39 ± 4% | – |
| CC(C)Cc1ccc([C@@H](C)S(=O)(=O)O)cc1 [Compound 1, (−)-1-(4-isobutylphenyl) ethanesulfonic acid sodium salt] | 55 ± 7% | – |
| CN(C)CCCNS(=O)(=O)/C=C/c1ccc(NS(C)(=O)=O)cc1 [Compound 21, E-2-[4-(methanesulfonylamino)phenyl] ethene-(N,N-dimethylaminopropyl) sulfonamide] | 31 ± 6% | – |
| CC(C)Cc1ccc([C@H](C)S(=O)(=O)O)cc1 [Compound 2, (+)-1-(4-isobutylphenyl) ethanesulfonic acid sodium salt] | 35 ± 7% | – |
| CNS(=O)(=O)/C=C/c1ccc(CC(C)C)cc1 [Compound 22, E-2-(4-isobutylphenyl)ethene-N-methyl sulfonamide] | – | 41 ± 9% |
| C/C(=C\S(N)(=O)=O)c1ccc(CC(C)C)cc1 [Compound 50, E-2-(4-isobutylphenyl)-2-methyl-ethenesulfonamide] | 32 ± 1% | – |
| CC(C)C(=O)c1ccc(CS(N)(=O)=O)n1C [Compound 30, (1-methyl-5-isobutirrylpyrrolyl)-1-methanesulfonamide] | 50 ± 1% | – |
| CNS(=O)(=O)C(C)c1ccc(CC(C)C)cc1 (racemic) [Compound 43, (±)-1-(4-isobutylphenyl)ethane-N-methyl sulfonamide] | – | 36 ± 15% |
| CC(C)Cc1ccc(/C=C/S(N)(=O)=O)cc1 [Compound 14, E-2-(4-isobutylphenyl) ethenesulfonamide] | 41 ± 17% | – |
| CC(C)Cc1ccc(/C=C/S(=O)(=O)NCCCN(C)C)cc1 [Compound 18, E-2-(4-isobutylphenyl)ethene(N,N-dimethylaminopropyl) sulfonamide] | 40 ± 1% | – |
| CC(=O)c1ccc(CS(=O)(=O)O)n1C [Compound 7, (1-methyl-5-acetylpyrrolyl)-1-methanesulfonic acid sodium salt] | 35 ± 2% | – |
| CC(=O)NS(=O)(=O)C(C)c1ccc(CC(C)C)cc1 (racemic) [Compound 47, (±)-1-(4-isobutylphenyl)ethane-N-acetyl sulfonamide] | 40 ± 17% | – |
| CC(c1cccc(C(=O)c2ccccc2)c1)S(=O)(=O)O (racemic) [Compound 8, sodium salt] | 65 ± 4% | – |
| CS(=O)(=O)Nc1ccc(/C=C/S(N)(=O)=O)cc1 [Compound 17, E-2-[4-(methanesulfonylamino)phenyl] ethenesulfonamide] | – | 41 ± 17% |
| CC(c1cccc(C(=O)c2ccccc2)c1)S(=O)(=O)NCCCN(C)C (racemic) [Compound 36, (±)-1-(3-benzoylphenyl)ethane-N-(N,N-dimethylaminopropyl) sulfonamide] | 49 ± 14% | – |
| CN(C)CCCNS(=O)(=O)/C=C/c1ccc(OS(=O)(=O)C(F)(F)F)cc1 [Compound 20, E-2-[4-(trifluoromethanesulfonyloxy)phenyl]ethene-(N,N-dimethylaminopropyl)sulfonamide] | 60 ± 1% | – |
